We go through eleven compounds from US9078871B2, “Estrogen receptor modulators and uses thereof” (SERAGON PHARMACEUTICALS, INC., priority 2010, dated 2015).

What all share (type): cell-based
The target of test [1] is T1, ER-α (Homo sapiens, UniProt P03372).
T1 construct: endogenous in cells; host or cells: MCF-7
T1 sequence (P03372 1-595): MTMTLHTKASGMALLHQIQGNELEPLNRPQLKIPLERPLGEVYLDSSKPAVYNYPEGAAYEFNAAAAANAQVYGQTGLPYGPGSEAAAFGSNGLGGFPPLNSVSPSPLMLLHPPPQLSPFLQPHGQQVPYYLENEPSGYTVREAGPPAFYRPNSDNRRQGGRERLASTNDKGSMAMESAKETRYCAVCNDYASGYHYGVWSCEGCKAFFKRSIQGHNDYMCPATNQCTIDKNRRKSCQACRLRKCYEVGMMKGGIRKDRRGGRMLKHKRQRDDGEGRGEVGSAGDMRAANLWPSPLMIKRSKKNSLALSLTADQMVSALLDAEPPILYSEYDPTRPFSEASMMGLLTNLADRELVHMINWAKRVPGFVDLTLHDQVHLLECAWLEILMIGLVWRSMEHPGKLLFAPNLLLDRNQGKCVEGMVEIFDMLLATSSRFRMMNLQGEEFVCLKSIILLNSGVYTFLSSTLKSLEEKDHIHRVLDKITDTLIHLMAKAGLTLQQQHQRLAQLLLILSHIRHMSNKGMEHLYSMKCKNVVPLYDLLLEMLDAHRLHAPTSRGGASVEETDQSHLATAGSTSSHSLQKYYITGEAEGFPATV
Kind of test: ER-α in Cell Western Assay (SP1). The conditions noted are these: MCF-7 cells, SP1 rabbit monoclonal Ab, 4 or 24 hr post compound addition, read-out: ER In-Cell Western Assay (SP1); for Emax: MCF7, Max Response; for DC50: IC50. The protocol:
(§1) MCF-7 cells were adjusted to a concentration of 200,000 cells per mL in RPMI containing 10% charcoal-stripped FBS and 20 mM HEPES. 16 microliters of the cell suspension (3200 cells) was added to each well of a poly-D-lysine 384 well plate, and the cells were incubated overnight to allow the cells to adhere. The following day an eleven point, serial semilog dilution of each compound was added to the cells in 16 μL at a final concentration ranging from 0.3-0.000003 μM. At 4 or 24 hr post compound addition, the cells were fixed (10% formalin in PBS) for 20 minutes. Cells were permeabalized in PBS 0.1% Triton and blocked with LICOR blocking buffer (50 μl/well, 90′). The wells were then incubated overnight at 4° C. with SP1 rabbit monoclonal Ab (Thermo Scientific) diluted 1:1000 in LICOR blocking buffer/0.1% Tween-20. Wells which were treated with blocking buffer with Tween but no antibody were used as a background control. Wells were washed with 0.1% Tween-20/PBS and then incubated in goat anti-rabbit IRDye™ 800CW (LICOR Inc.; 1:1000) and DRAQ5 DNA dye (1:2000 for 2 mM stock) diluted in LICOR blocking buffer containing 0.1% Tween-20 and 0.01% SDS for 60 minutes. Cells were washed (50 μl/well, 5′ each) in 0.1% Tween-20/PBS. Plates were scanned on a LICOR Odyssey infrared imaging system. Integrated intensities in the 800 nm channel and 700 nm channel were measured to determine levels of ER and DNA respectively. Percent ER levels were determined as follows: (Integrated intensity 800 nm sample/integrated intensity 700 nm sample)/(Integrated intensity 800 nm untreated cells/integrated intensity 700 nm untreated cells)×100=% ER levels.

The next test relates to MCF-7 cells. Kind of test: Breast Cancer Cell Viability Assay (MCF7 Viability Assay). To be noted: 5 days' compound exposure, CellTiter-Glo; for IC50: Homo sapiens, MCF7, 120 h. The protocol:
MCF-7 cells were adjusted to a concentration of 20,000 cells per mL in RPMI containing 10% FBS and 20 mM HEPES. 16 microliters of the cell suspension (320 cells) was added to each well of a 384 well plate, and the cells were incubated overnight to allow the cells to adhere. The following day an eleven point, serial semilog dilution of each compound was added to the cells in 16 μL at a final concentration ranging from 0.3-0.000003 μM. After 5 days' compound exposure, 16 μL of CellTiter-GLo (Promega, Madison Wis.) was added to the cells the relative luminescence units (RLUs) of each well was determined. CellTiter-Glo added to 32 μL of medium without cells was used to obtain a background value. The Percent viability of each sample was determined as follows: (RLU sample-RLU background/RLU untreated cells-RLU background)×100=% viability.

For test [2], the target named is T1, ER-α. Briefly: ER-α In Cell Western Assay (ER1D5). The conditions noted are these: MCF-7 cells, ER1D5 antibody, 4 or 24 hr post compound addition, read-out: ER In-Cell Western Assay (ER1D5); for Emax: MCF7, Max Response; for DC50: IC50. The protocol: as §1, with “with ER1D5 (Santa Cruz Biotechnology)” for “with SP1 rabbit monoclonal Ab (Thermo Scientific)”, “diluted 1:100” for “diluted 1:1000”, “goat anti-mouse” for “goat anti-rabbit”

The structures appear in SMILES notation.

`CC1=C(c2cccc(O)c2)C(c2ccc(OCCN3CCCC3)cc2F)Oc2ccc(O)cc21` (centres unmarked) [Example 34, 2-(2-Fluoro-4-(2-(pyrrolidin-1-yl)ethoxy)phenyl)-3-(3-hydroxyphenyl)-4-methyl-2H-chromen-6-ol]: on ER-α [1], the Emax lay in the range of 60 to 85% and the DC50 is ≤ 1 nM. Further, in the test with MCF-7 cells, the “MCF7 Viability Assay Max Response” value is recorded as “++ (++ = a single % value ≧50%)” and the IC50 is ≤ 1 nM. At ER-α [2], the Emax lay in the range of 40 to 65% and the DC50 was ≤ 1 nM.

For `CC1=C(c2ccccc2)C(c2ccc(OC[C@H](C)N3CC[C@@H](C)C3)cc2)Oc2ccc(O)cc21` (stereo partly drawn) [Example 29, 4-Methyl-2-(4-((S)-2-((R)-3-methylpyrrolidin-1-yl)propoxy)phenyl)-3-phenyl-2H-chromen-6-ol], on ER-α [1], the Emax was in the range of 60 to 85% and the DC50 was ≤ 1 nM. In the test with MCF-7 cells, the “MCF7 Viability Assay Max Response” value is recorded as “++ (++ = a single % value ≧50%)” and the IC50 was ≤ 1 nM. Besides, on ER-α [2], the Emax is ≥ 65% and the DC50 is ≤ 1 nM.

Regarding `CC1=C(c2ccc(F)cc2)C(c2ccc(OCCN3CCCC3)cc2)Oc2ccc(O)cc21` (centres unmarked) [Example 55, 3-(4-Fluorophenyl)-4-methyl-2-(4-(2-(pyrrolidin-1-yl)ethoxy)phenyl)-2H-chromen-6-ol], on ER-α [1], the Emax lay within 60 to 85% and the DC50 is ≤ 1 nM. For the same compound, in the test with MCF-7 cells, the “MCF7 Viability Assay Max Response” value is recorded as “++ (++ = a single % value ≧50%)” and the IC50 is > 1 nM. Besides, at ER-α [2], the Emax was in the range of 40 to 65% and the DC50 was > 1 nM.

`CC1=C(c2cccc(O)c2)C(c2ccc(OC[C@H](C)N3CCCCCC3)cc2)Oc2ccc(O)cc21` (stereo partly drawn) [Example 15, 2-(4-((S)-2-(Azepan-1-yl)propoxy)phenyl)-3-(3-hydroxyphenyl)-4-methyl-2H-chromen-6-ol]: at ER-α [1], the Emax is 60 to 85% and the DC50 was ≤ 1 nM. Besides, in the test with MCF-7 cells, the “MCF7 Viability Assay Max Response” value was “++ (++ = a single % value ≧50%)” and the IC50 is ≤ 1 nM. On ER-α [2], the Emax was 40 to 65% and the DC50 is ≤ 1 nM.

On to `CC1=C(c2cccc(O)c2)C(c2ccc(OCCN3CCC(C)CC3)cc2)Oc2ccc(O)cc21` (centres unmarked) [Example 21, 3-(3-Hydroxyphenyl)-4-methyl-2-(4-(2-(4-methylpiperidin-1-yl)ethoxy)phenyl)-2H-chromen-6-ol], for which, on ER-α [1], the Emax lay within 60 to 85% and the DC50 is ≤ 1 nM. Moreover, in the test with MCF-7 cells, the “MCF7 Viability Assay Max Response” value is on record as “++ (++ = a single % value ≧50%)” and the concentration for half-maximal inhibition (IC50) is ≤ 1 nM. At ER-α [2], the Emax was 40 to 65% and the DC50 was ≤ 1 nM.

As for `CC1=C(c2ccc(F)cc2)C(c2ccc(OC[C@H](C)N3CC[C@@H](C)C3)cc2)Oc2ccc(O)cc21` (mixture of isomers) [Example 30, 3-(4-Fluorophenyl)-4-methyl-2-(4-((S)-2-((R)-3-methylpyrrolidin-1-yl)propoxy)phenyl)-2H-chromen-6-ol], at ER-α [1], the Emax was in the range of 60 to 85% and the DC50 was ≤ 1 nM. Besides, in the test with MCF-7 cells, the “MCF7 Viability Assay Max Response” value was “++ (++ = a single % value ≧50%)” and the IC50 was ≤ 1 nM. For the same compound, at ER-α [2], the Emax was ≥ 65% and the DC50 was ≤ 1 nM.

As to `CC1=C(c2cccc(O)c2)C(c2ccc(OCCN3CC[C@@H](C)C3)cc2)Oc2ccc(O)cc21` (stereo partly drawn) [Example 8, 3-(3-Hydroxyphenyl)-4-methyl-2-(4-(2-((R)-3-methylpyrrolidin-1-yl)ethoxy)phenyl)-2H-chromen-6-ol], on ER-α [1], the Emax is ≥ 85% and the DC50 was ≤ 1 nM. Besides, in the test with MCF-7 cells, the “MCF7 Viability Assay Max Response” value is reported as “++ (++ = a single % value ≧50%)” and the IC50 was ≤ 1 nM. Further, on ER-α [2], the Emax is ≥ 65% and the DC50 was ≤ 1 nM.

Regarding `CC1=C(c2cccc(O)c2)C(c2ccc(OC[C@H](C)N3CCC[C@H]3C)cc2)Oc2ccc(O)cc21` (stereo partly drawn) [Example 23, 3-(3-Hydroxyphenyl)-4-methyl-2-(4-((S)-2-((R)-2-methylpyrrolidin-1-yl)propoxy)phenyl)-2H-chromen-6-ol], at ER-α [1], the Emax is ≥ 85% and the DC50 was ≤ 1 nM. Further, in the test on MCF-7 cells, the “MCF7 Viability Assay Max Response” value is recorded as “++ (++ = a single % value ≧50%)” and the half-maximal inhibitory concentration (IC50) is ≤ 1 nM. Moreover, on ER-α [2], the Emax was ≥ 65% and the DC50 was ≤ 1 nM.

On to `CC1=C(c2cccc(O)c2)C(c2ccc(N(C)CCO)cc2)Oc2ccc(O)cc21` (centres unmarked) [Example 4, 2-(4-((2-Hydroxyethyl)(methyl)amino)phenyl)-3-(3-hydroxyphenyl)-4-methyl-2H-chromen-6-ol], for which, at ER-α [1], the Emax was < 60% and the DC50 was > 1 nM. For the same compound, in the test on MCF-7 cells, the “MCF7 Viability Assay Max Response” value is recorded as “+ (+ = a single % value <50%)” and the 50% inhibitory concentration (IC50) is > 1 nM. Besides, at ER-α [2], the Emax was < 40% and the DC50 is > 1 nM.

For `CC1=C(c2ccc(F)cc2Cl)C(c2ccc(OC[C@H](C)N3CC[C@@H](C)C3)cc2)Oc2ccc(O)cc21` (stereo partly drawn) [Example 50, 3-(2-Chloro-4-fluorophenyl)-4-methyl-2-(4-((S)-2-((R)-3-methylpyrrolidin-1-yl)propoxy)phenyl)-2H-chromen-6-ol], at ER-α [1], the Emax was 60 to 85% and the DC50 is ≤ 1 nM. Moreover, in the test on MCF-7 cells, the “MCF7 Viability Assay Max Response” value is recorded as “++ (++ = a single % value ≧50%)” and the IC50 is ≤ 1 nM.

Take `CC1=C(c2cc(O)c(F)c(F)c2)C(c2ccc(OC[C@H](C)N3CC[C@@H](C)C3)cc2)Oc2ccc(O)cc21` (stereo partly drawn) [Example 49, 3-(3,4-Difluoro-5-hydroxyphenyl)-4-methyl-2-(4-((S)-2-((R)-3-methylpyrrolidin-1-yl)propoxy)phenyl)-2H-chromen-6-ol]: at ER-α [1], the Emax was ≥ 85% and the DC50 is ≤ 1 nM. For the same compound, in the test on MCF-7 cells, the “MCF7 Viability Assay Max Response” value is given as “++ (++ = a single % value ≧50%)” and the IC50 is ≤ 1 nM.

The IC50 is the concentration at which inhibition is half-maximal. Higher therefore signals a need for much substance.
